Test results as given in patent publication US20200216417A1, “INHIBITORS OF FIBROBLAST ACTIVATION PROTEIN” (Praxis Biotech LLC, priority 2019, published 2020).
Like-named read-outs stand apart in the source and are kept apart here.

What was measured:
[1] = target: T1, recombinant human PREP (rhPREP) (Homo sapiens, UniProt P48147); assay: PREP enzymatic activity assay, Z-Gly-Pro-AMC; format: biochemical
T1 sequence (P48147 1-710): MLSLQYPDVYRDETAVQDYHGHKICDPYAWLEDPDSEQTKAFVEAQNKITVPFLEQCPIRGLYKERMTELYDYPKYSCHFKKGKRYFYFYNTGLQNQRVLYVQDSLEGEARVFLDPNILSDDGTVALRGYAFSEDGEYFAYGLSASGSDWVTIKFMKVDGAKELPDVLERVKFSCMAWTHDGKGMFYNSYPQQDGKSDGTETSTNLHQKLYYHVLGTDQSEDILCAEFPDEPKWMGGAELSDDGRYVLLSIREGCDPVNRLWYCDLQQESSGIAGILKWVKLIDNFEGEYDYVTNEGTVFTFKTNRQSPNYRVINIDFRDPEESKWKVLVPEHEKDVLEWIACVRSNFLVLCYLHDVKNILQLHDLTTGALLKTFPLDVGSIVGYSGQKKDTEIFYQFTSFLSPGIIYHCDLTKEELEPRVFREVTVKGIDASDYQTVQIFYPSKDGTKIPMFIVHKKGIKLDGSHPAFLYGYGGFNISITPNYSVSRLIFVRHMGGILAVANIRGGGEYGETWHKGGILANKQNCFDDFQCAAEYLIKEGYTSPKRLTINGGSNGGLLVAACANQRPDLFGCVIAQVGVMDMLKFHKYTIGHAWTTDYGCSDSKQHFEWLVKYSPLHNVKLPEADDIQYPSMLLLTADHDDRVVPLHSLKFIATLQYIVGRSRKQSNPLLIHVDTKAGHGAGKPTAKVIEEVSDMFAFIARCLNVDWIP

[2] = target: T2, recombinant human DPP9 (rhDPP9) (Homo sapiens, UniProt Q86TI2); assay: DPP9 inhibition assay, 10 ng rhDPP9, Tris-HCl/BSA buffer; format: biochemical; conditions: Table 3B
T2 construct: purchased R&S system / R&D systems (both sic) 5419-SE
T2 sequence (Q86TI2 whole entry): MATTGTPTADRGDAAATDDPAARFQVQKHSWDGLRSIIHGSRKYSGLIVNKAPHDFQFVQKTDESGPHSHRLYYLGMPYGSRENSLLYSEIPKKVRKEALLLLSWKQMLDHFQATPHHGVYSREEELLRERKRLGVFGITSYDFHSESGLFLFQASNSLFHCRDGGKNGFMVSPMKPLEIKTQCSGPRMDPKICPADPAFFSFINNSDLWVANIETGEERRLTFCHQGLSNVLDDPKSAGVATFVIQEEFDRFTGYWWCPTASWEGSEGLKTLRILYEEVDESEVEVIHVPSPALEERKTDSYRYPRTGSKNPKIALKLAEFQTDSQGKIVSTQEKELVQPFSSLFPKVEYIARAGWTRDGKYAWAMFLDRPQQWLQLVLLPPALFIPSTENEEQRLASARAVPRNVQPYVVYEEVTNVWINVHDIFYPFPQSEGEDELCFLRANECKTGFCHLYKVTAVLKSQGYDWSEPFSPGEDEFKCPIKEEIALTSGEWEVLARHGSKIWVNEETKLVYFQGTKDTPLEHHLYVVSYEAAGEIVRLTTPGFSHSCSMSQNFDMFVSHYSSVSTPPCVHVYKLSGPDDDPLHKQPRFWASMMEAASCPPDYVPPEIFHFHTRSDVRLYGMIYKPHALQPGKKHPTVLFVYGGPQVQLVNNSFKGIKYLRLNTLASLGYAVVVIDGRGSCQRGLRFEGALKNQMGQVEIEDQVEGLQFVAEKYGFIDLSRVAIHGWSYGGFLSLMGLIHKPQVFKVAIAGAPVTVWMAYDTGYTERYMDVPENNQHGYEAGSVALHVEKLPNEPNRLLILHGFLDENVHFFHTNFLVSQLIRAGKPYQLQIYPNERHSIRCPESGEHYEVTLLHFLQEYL

[3] = target: T3, recombinant human DPPIV (rhDPPIV) (Homo sapiens, UniProt P27487); assay: DPPIV enzymatic activity assay, H-Gly-Pro-pNA; format: biochemical
T3 construct: purchased R&S system (so in the source)
T3 sequence (P27487 whole entry): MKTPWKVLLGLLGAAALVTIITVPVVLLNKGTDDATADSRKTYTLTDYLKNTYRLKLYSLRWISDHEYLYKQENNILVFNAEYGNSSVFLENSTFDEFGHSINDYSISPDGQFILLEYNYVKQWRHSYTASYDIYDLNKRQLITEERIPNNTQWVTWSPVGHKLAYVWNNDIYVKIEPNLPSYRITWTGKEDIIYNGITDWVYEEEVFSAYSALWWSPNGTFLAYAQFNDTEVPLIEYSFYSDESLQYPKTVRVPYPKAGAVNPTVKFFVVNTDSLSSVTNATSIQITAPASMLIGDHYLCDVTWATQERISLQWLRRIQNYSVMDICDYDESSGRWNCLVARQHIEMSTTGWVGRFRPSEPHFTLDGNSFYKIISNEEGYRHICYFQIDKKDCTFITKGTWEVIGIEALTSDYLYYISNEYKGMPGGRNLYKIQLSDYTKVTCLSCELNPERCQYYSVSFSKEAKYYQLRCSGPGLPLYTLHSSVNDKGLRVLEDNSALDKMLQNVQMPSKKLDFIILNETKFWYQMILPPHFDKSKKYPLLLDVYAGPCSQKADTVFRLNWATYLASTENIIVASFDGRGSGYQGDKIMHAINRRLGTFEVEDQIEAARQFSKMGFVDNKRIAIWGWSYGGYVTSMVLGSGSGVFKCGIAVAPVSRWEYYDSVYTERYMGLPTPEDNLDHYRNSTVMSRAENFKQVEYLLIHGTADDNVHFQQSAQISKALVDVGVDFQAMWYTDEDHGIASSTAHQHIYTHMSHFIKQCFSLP

[4] = target: T2, recombinant human DPP9 (rhDPP9); assay: DPP9 enzymatic activity assay, 40 ng rhDPP9, HEPES buffer; format: biochemical; conditions: Table 3A
[5] = target: T4, recombinant human FAPα (rhFAPα) (Homo sapiens, UniProt Q12884); assay: FAPα enzymatic exopeptidase (dipeptidase) activity assay, Z-Gly-Pro-AMC; format: biochemical; conditions: for inhibition at 1 µM: exopeptidase inhibition at 1 μM test compound
T4 construct: purchased R&S system (so in the source)
T4 sequence (Q12884 1-760): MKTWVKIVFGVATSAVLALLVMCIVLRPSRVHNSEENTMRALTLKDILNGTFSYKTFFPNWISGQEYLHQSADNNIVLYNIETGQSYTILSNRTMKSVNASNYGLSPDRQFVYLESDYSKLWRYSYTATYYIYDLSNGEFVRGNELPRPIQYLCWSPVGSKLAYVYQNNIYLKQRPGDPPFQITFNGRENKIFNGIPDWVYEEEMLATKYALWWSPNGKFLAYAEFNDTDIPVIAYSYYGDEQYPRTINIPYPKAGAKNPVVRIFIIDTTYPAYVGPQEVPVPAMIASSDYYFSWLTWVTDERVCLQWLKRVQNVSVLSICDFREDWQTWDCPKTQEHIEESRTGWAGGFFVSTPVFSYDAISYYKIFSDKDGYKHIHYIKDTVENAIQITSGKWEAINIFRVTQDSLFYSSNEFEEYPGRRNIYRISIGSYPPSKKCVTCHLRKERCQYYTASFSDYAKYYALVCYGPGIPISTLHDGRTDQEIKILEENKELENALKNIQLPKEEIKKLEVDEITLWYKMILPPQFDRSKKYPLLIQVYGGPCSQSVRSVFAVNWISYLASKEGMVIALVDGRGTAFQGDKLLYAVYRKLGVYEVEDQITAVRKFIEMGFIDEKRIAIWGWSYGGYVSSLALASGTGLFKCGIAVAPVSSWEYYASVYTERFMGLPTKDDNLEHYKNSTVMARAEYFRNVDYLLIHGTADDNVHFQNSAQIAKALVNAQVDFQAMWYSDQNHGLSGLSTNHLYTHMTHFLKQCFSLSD

[6] = tested on: human AML cell line MV4-11; assay: Cytotoxicity assay in human leukemia cell lines (Cell-Titer Glo); conditions: MV4-11, 48 h, read-out: MV4-11 viability IC50, μM
[7] = Table 2, read-out: rhFAPα (% exo inh @ 1 μM)
[8] = Table 3B, read-out: rhFAPα % exo inh @ 1 μM
[9] = exopeptidase, Table 2, read-out: rhFAPα (exo IC50)
[10] = exopeptidase, Table 3A, read-out: rhFAPα (exo IC50)

SMILES | IC50 ([1]; Table 3A) | IC50 ([1]; Table 3B) | IC50 [2] | IC50 ([3]; Table 3A) | IC50 ([3]; Table 3B) | IC50 [4] | IC50 ([5]; Table 3B, read-out: rhFAP IC50) | inhibition at 1 µM [5, 7] | inhibition at 1 µM [5, 8] | IC50 [5, 9] | IC50 [5, 10] | IC50 [6]
N#C[C@@H]1CC(F)(F)CN1C(=O)CNC(=O)c1ccncc1NC(=O)Cc1ccccc1 [Compound 1, (S)—N-(2-(2-cyano-4,4-difluoropyrrolidin-1-yl)-2-oxoethyl)-3-(2-phenylacetamido)isonicotinamide] | > 10000 nM | > 10000 nM | 1000 to 10000 nM | > 10000 nM | > 10000 nM | > 10000 nM | < 1000 nM | > 50% | > 50% | < 1000 nM | < 1000 nM | –
CC(Nc1cnccc1C(=O)NCC(=O)N1CC(F)(F)C[C@H]1C#N)c1ccc(F)cc1 (stereo partly drawn) [Compound 4, N-(2-((S)-2-cyano-4,4-difluoropyrrolidin-1-yl)-2-oxoethyl)-3-((1-(4-fluorophenyl)ethyl)amino)isonicotinamide] | > 10000 nM | > 10000 nM | 1000 to 10000 nM | 1000 to 10000 nM | 1000 to 10000 nM | > 10000 nM | < 1000 nM | > 50% | > 50% | < 1000 nM | < 1000 nM | –
N#C[C@@H]1CC(F)(F)CN1C(=O)CNC(=O)c1ccnc(N2CCN(C(c3ccc(F)cc3)c3ccc(F)cc3)CC2)c1 [Compound 6, (S)-2-(4-(bis(4-fluorophenyl)methyl)piperazin-1-yl)-N-(2-(2-cyano-4,4-difluoropyrrolidin-1-yl)-2-oxoethyl)isonicotinamide] | – | – | 1000 to 10000 nM | – | – | 1000 to 10000 nM | < 1000 nM | > 50% | > 50% | < 1000 nM | < 1000 nM | –
N#C[C@@H]1CC(F)(F)CN1C(=O)CNC(=O)c1ccncc1CCc1ccc(Cl)cc1 [Compound 10, (S)-3-(4-chlorophenethyl)-N-(2-(2-cyano-4,4-difluoropyrrolidin-1-yl)-2-oxoethyl)isonicotinamide] | 1000 to 10000 nM | 1000 to 10000 nM | 1000 to 10000 nM | 1000 to 10000 nM | 1000 to 10000 nM | 1000 to 10000 nM | < 1000 nM | > 50% | > 50% | < 1000 nM | < 1000 nM | –
N#C[C@@H]1CC(F)(F)CN1C(=O)CNC(=O)c1ccncc1CCc1ccc(F)cc1 [Compound 11, (S)—N-(2-(2-cyano-4,4-difluoropyrrolidin-1-yl)-2-oxoethyl)-3-(4-fluorophenethyl)isonicotinamide] | 1000 to 10000 nM | 1000 to 10000 nM | 1000 to 10000 nM | > 10000 nM | > 10000 nM | 1000 to 10000 nM | < 1000 nM | > 50% | > 50% | < 1000 nM | < 1000 nM | –
N#C[C@@H]1CC(F)(F)CN1C(=O)CNC(=O)c1ccncc1/C=C/c1ccc(F)cc1 [Compound 12, (S,E)-N-(2-(2-cyano-4,4-difluoropyrrolidin-1-yl)-2-oxoethyl)-3-(4-fluorostyryl)isonicotinamide] | > 10000 nM | > 10000 nM | 1000 to 10000 nM | 1000 to 10000 nM | 1000 to 10000 nM | 1000 to 10000 nM | < 1000 nM | > 50% | > 50% | < 1000 nM | < 1000 nM | –
C/C(=C\c1cnccc1C(=O)NCC(=O)N1CC(F)(F)C[C@H]1C#N)c1ccc(F)cc1 [Compound 13, (S,E)-N-(2-(2-cyano-4,4-difluoropyrrolidin-1-yl)-2-oxoethyl)-3-(2-(4-fluorophenyl)prop-1-en-1-yl)isonicotinamide] | > 10000 nM | > 10000 nM | 1000 to 10000 nM | > 10000 nM | > 10000 nM | 1000 to 10000 nM | < 1000 nM | > 50% | > 50% | < 1000 nM | < 1000 nM | –
C=C(Cc1cnccc1C(=O)NCC(=O)N1CC(F)(F)C[C@H]1C#N)c1ccc(F)cc1 [Compound 14, (S)—N-(2-(2-cyano-4,4-difluoropyrrolidin-1-yl)-2-oxoethyl)-3-(2-(4-fluorophenyl)allyl)isonicotinamide] | – | 1000 to 10000 nM | 1000 to 10000 nM | > 10000 nM | > 10000 nM | 1000 to 10000 nM | < 1000 nM | > 50% | > 50% | < 1000 nM | < 1000 nM | –
COc1ccc(/C=C/c2cnccc2C(=O)NCC(=O)N2CC(F)(F)C[C@H]2C#N)cc1 [Compound 15] | – | > 10000 nM | < 1000 nM | – | > 10000 nM | – | < 1000 nM | – | > 50% | – | – | > 10 µM
N#C[C@@H]1CC(F)(F)CN1C(=O)CNC(=O)c1ccnc2ccc(/C=C/c3ccc(Cl)cc3)cc12 [Compound 34] | – | > 10000 nM | < 1000 nM | – | > 10000 nM | – | < 1000 nM | – | > 50% | – | – | < 3 µM
C/C(=C\c1ccc2nccc(C(=O)NCC(=O)N3CC(F)(F)C[C@H]3C#N)c2c1)c1ccc(Cl)cc1 [Compound 39] | – | > 10000 nM | < 1000 nM | – | > 10000 nM | – | < 1000 nM | – | > 50% | – | – | –
N#C[C@@H]1CC(F)(F)CN1C(=O)CNC(=O)c1ccncc1/C=C/c1ccc2cc(Cl)ccc2c1 [Compound 40] | – | > 10000 nM | < 1000 nM | – | 1000 to 10000 nM | – | < 1000 nM | – | > 50% | – | – | 3 to 10 µM
COc1ccc(C#Cc2ccc3nccc(C(=O)NCC(=O)N4CC(F)(F)C[C@H]4C#N)c3c2)cc1 [Compound 41] | – | > 10000 nM | < 1000 nM | – | > 10000 nM | – | < 1000 nM | – | > 50% | – | – | > 10 µM
N#C[C@@H]1CC(F)(F)CN1C(=O)CNC(=O)c1ccnc2ccc(/C=C/c3ccc4cc(Cl)ccc4c3)cc12 [Compound 42] | – | > 10000 nM | < 1000 nM | – | > 10000 nM | – | < 1000 nM | – | > 50% | – | – | –
COc1ccc(/C=C/c2ccc3nccc(C(=O)NCC(=O)N4CC(F)(F)C[C@H]4C#N)c3c2)cn1 [Compound 43] | – | > 10000 nM | < 1000 nM | – | > 10000 nM | – | < 1000 nM | – | > 50% | – | – | –
N#C[C@@H]1CC(F)(F)CN1C(=O)CNC(=O)c1ccnc2ccc(/C=C/c3ccc(F)cc3)cc12 [Compound 44] | – | > 10000 nM | < 1000 nM | – | > 10000 nM | – | < 1000 nM | – | > 50% | – | – | < 3 µM
Cc1ccc(/C=C/c2ccc3nccc(C(=O)NCC(=O)N4CC(F)(F)C[C@H]4C#N)c3c2)cn1 [Compound 45] | – | > 10000 nM | < 1000 nM | – | > 10000 nM | – | < 1000 nM | – | > 50% | – | – | 3 to 10 µM
N#C[C@@H]1CC(F)(F)CN1C(=O)CNC(=O)c1ccnc2ccc(/C=C/c3ccc(OC(F)(F)F)cc3)cc12 [Compound 48] | – | > 10000 nM | < 1000 nM | – | > 10000 nM | – | < 1000 nM | – | > 50% | – | – | –
